In data set [1] the target is T1, Polycomb protein EED (Homo sapiens, UniProt O75530). The data set is described as follows: Inhibition of OG(488) labeled probe binding to GST-tagged EED (unknown origin) after 1 hr by LanthaScreen TR-FRET assay. On the technique in general: Time-resolved FRET reads energy transfer from a long-lived donor to a nearby acceptor.
Data set [2] can be described thus: Intrinsic clearance in mouse liver microsomes at 0.5 uM by HPLC-MS/MS method. It counts as ADME, microsome. As to conditions: read-out: CLH.
Data set [3] in a line: Permeability of the compound by PAMPA. Type of data set: physicochemical. As to conditions: read-out: permeability. (In general: PAMPA measures passive passage across an artificial lipid membrane.)
Data set [4] concerns the target T1, Polycomb protein EED. Put plainly: Inhibition of EED in human OCILY19 cells assessed as reduction in H3K27 trymethylation measured after 6 days by alphaLISA method. Type of data set: cell-based.
Another data set concerns Pfeiffer. Put plainly: Antiproliferative activity against human Pfeiffer cells after 10 days by celltiter-glo luminescent cell viability Assay. As to conditions: 240 h. It counts as functional, cell-based. (Cellular ATP, detected with luciferase, serves as a proxy for viable cell number.)
The target in data set [5] is T1, Polycomb protein EED. Put plainly: Inhibition of EED in human G401 cells assessed as reduction in H3K27 trymethylation measured after 6 days by alphaLISA method. It counts as cell-based.
The test system of a further data set is Liver. The data set is described as follows: Unbound intrinsic clearance in mouse liver microsomes at 0.5 uM by HPLC-MS/MS method. Type of data set: ADME, microsome.

T1 sequence (O75530 whole entry): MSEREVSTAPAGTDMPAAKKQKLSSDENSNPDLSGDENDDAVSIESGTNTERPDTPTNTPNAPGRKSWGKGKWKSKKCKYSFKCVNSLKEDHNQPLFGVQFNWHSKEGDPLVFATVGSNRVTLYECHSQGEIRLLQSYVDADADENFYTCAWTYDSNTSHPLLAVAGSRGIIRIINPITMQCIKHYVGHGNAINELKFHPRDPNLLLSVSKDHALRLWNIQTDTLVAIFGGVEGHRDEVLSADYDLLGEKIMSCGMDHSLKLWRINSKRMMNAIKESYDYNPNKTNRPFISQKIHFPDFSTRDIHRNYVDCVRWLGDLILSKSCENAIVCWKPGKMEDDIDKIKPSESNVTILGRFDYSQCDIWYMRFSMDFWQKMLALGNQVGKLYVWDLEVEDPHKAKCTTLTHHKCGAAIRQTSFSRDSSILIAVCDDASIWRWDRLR

`CN(C)[C@H]1CN([C@@H]2CCc3cccc(F)c32)C[C@@H]1c1cn(C)c2ccccc12` registered a Ki on Polycomb protein EED [1] of 129 nM. For the same compound, in data set [2], the CLint scaled at 0.5 µM was more than 1000 L/h/kg.

`CN(C)C(=O)c1cccc2c([C@H]3CN(Cc4c(F)cccc4Br)C[C@@H]3N(C)C)cn(C)c12` came in with a Ki on Polycomb protein EED [1] of 23 nM.

With `CN(C)[C@H]1CN([C@H]2CCc3cccc(F)c32)C[C@@H]1c1cn(C)c2ccccc12`, the Ki on Polycomb protein EED [1] worked out at 11 nM. For the same compound, in data set [3], the Papp is 1 to 3 ×10⁻⁶ cm/s. The IC50 amounted to 660 nM at Polycomb protein EED [4], 1100 nM in the data set with Pfeiffer and 290 nM at Polycomb protein EED [5]. Moreover, the CLint scaled at 0.5 µM in data set [2] was more than 1000 L/h/kg.

At Polycomb protein EED [1], `Cc1cccc(F)c1CN1C[C@H](c2cn(C)c3ccccc23)[C@@H](N(C)C)C1` showed a Ki of 12 nM. In addition, in data set [3], the Papp was in the range of 1 to 3 ×10⁻⁶ cm/s. In addition, the values for the half-maximal inhibitory concentration (IC50) on Polycomb protein EED [4], in the data set with Pfeiffer and on Polycomb protein EED [5] were 2400 nM, 3300 nM and 2400 nM, respectively. Besides, the CLint scaled at 0.5 µM in data set [2] was more than 1000 L/h/kg.

In turn, `CN(C)[C@H]1CN([C@H]2COc3cccc(F)c32)C[C@@H]1c1cn(C)c2ccccc12` showed a Ki at Polycomb protein EED [1] of 610 nM.

On Polycomb protein EED [1], `CC(=O)N1CCN(c2ccc([C@H]3CN(C4CCc5cccc(F)c54)C[C@@H]3N(C)C)cc2)CC1` (mixture of isomers) returned a Ki of 0.29 nM. In addition, the figures for the IC50 on Polycomb protein EED [4], in the data set with Pfeiffer and on Polycomb protein EED [5] were 50 nM, 33 nM and 33 nM, respectively. This compound registered a CL free in the data set with Liver of 220 L/h/kg.

In the case of `Cc1cccc(F)c1CN1C[C@H](c2cn(C)c3c(N4CCN(C)C(=O)C4)cccc23)[C@@H](N(C)C)C1` (mixture of isomers), the Ki on Polycomb protein EED [1] is 0.74 nM. For the same compound, the concentration for half-maximal inhibition (IC50) at Polycomb protein EED [4] came to 100 nM; in the data set on Pfeiffer, 98 nM; at Polycomb protein EED [5], 190 nM.

As to `CN(C)[C@H]1CN(C2CCc3cccc(F)c32)C[C@@H]1C1CCN(c2ccc(C(N)=O)cn2)CC1` (mixture of isomers), the affinity at Polycomb protein EED [1], expressed as Ki, was 0.45 nM. For the same compound, the figures for the IC50 on Polycomb protein EED [4], in the data set on Pfeiffer and on Polycomb protein EED [5] were 280 nM, 130 nM and 230 nM, respectively. In addition, in the data set on Liver, the CL free was 120 L/h/kg.

For `Cc1cccc(F)c1CN1C[C@H](c2cn(C)c3c(C(=O)N4CC(F)C4)cccc23)[C@@H](N(C)C)C1` (mixture of isomers), the Ki at Polycomb protein EED [1] was found to be 1 nM. The IC50 at Polycomb protein EED [4] was found to be 180 nM; in the data set with Pfeiffer it was 65 nM; on Polycomb protein EED [5] it was 31 nM. The same compound came in with a CL free with Liver of 1100 L/h/kg.

In turn, `Cc1cccc(F)c1CN1C[C@H](c2ccc(N3CCN(c4ccccn4)CC3)cc2)[C@@H](N(C)C)C1` (racemic) displayed an inhibition constant (Ki) on Polycomb protein EED [1] of 2.1 nM. In addition, the CL free in the data set with Liver came to 9900 L/h/kg.

Regarding `CN(C)[C@H]1CN(Cc2nccn2C)C[C@@H]1c1cn(C)c2ccccc12` (racemic), on Polycomb protein EED [1], the Ki is more than 50000 nM.

Turning to `CN(C)[C@H]1CN(Cc2c(F)cccc2Br)C[C@@H]1c1ccncc1` (racemic), on Polycomb protein EED [1], the Ki amounted to 49 nM.

`Cc1cccc(F)c1CN1C[C@H](c2ccc(-c3cnn(CC(N)=O)c3)cc2)[C@@H](N(C)C)C1` (racemic) displayed a Ki on Polycomb protein EED [1] of 2.6 nM. This compound showed a CL free with Liver of 225 L/h/kg.

Consider `Cc1cccc(F)c1CN1C[C@H](c2ccc(C3=CCN(C(=O)CS(C)(=O)=O)CC3)nc2)[C@@H](N(C)C)C1` (racemic), for which, at Polycomb protein EED [1], the Ki was found to be 4.6 nM. The same compound showed a CL free with Liver of 268 L/h/kg.

Turning to `Cc1cccc(F)c1CN1C[C@H](C2CCN(c3cnc(C(N)=O)cn3)CC2)[C@@H](N(C)C)C1` (racemic), the affinity on Polycomb protein EED [1] corresponds to a Ki of 0.65 nM.

Compound `CN(C)[C@H]1CN([C@H]2CCc3ncccc32)C[C@@H]1c1cn(C)c2ccccc12` (racemic) showed an inhibitory constant (Ki) at Polycomb protein EED [1] of 260 nM.

As to `COc1ccccc1CN1C[C@H](c2cn(C)c3ccccc23)[C@@H](N(C)C)C1` (racemic), in data set [2], the CLint scaled at 0.5 µM was more than 1000 L/h/kg.

`CN(C)[C@H]1CN(Cc2c(F)cccc2Br)C[C@@H]1c1cn(C)c2ccccc12` (racemic) registered a Ki at Polycomb protein EED [1] of 13 nM. The Papp in data set [3] lay within 1 to 3 ×10⁻⁶ cm/s. Moreover, the half-maximal inhibitory concentration (IC50) on Polycomb protein EED [4] is 8300 nM; with Pfeiffer, 9500 nM; at Polycomb protein EED [5], 4100 nM. In addition, the CLint scaled at 0.5 µM in data set [2] was more than 1000 L/h/kg.

On to `Cc1cccc(F)c1CN1C[C@H](c2cn(CC(=O)N(C)C)c3ncccc23)[C@@H](N(C)C)C1` (racemic), for which the inhibition constant Ki at Polycomb protein EED [1] turned out to be 5.3 nM. In addition, in the data set on Liver, the CL free turned out to be 276 L/h/kg.

For `Cc1cccc(F)c1CN1C[C@H](c2ccccc2)[C@@H](N(C)C)C1` (racemic), affinity on Polycomb protein EED [1] was put at a Ki of 56 nM. The compound also came in with a CL free in the data set on Liver of 1300 L/h/kg.

The compound `CC(=O)N1CCN(c2ccc([C@H]3CN(Cc4c(C)cccc4F)C[C@@H]3N(C)C)cc2)CC1` (racemic) showed a Ki at Polycomb protein EED [1] of 2.6 nM. The same compound returned a CL free with Liver of 170 L/h/kg.

`CCn1cc(CN2C[C@H](c3cn(C)c4ccccc34)[C@@H](N(C)C)C2)c(C)n1` (racemic) registered an inhibition constant (Ki) at Polycomb protein EED [1] of more than 50000 nM.

In turn, `CN(C)[C@H]1CN([C@H]2CCCc3ccccc32)C[C@@H]1c1cn(C)c2ccccc12` (racemic) displayed a Ki on Polycomb protein EED [1] of 78 nM.

On to `CN(C)[C@H]1CN(Cc2c(F)cccc2Br)C[C@@H]1c1ccccc1` (racemic), for which the affinity at Polycomb protein EED [1], expressed as Ki, was 78 nM.

On Polycomb protein EED [1], `CN(C)[C@H]1CN(Cc2c(F)cccc2Br)C[C@@H]1C1CCCCC1` (racemic) had a Ki of 230 nM.

`CN(C)[C@H]1CN(Cc2c(F)cccc2Br)C[C@@H]1C1CC1` (racemic): at Polycomb protein EED [1], the Ki was 71 nM.

In the case of `CN(C)[C@H]1CN(Cc2ccn3ccnc3c2)C[C@@H]1c1cn(C)c2ccccc12` (racemic), the Ki at Polycomb protein EED [1] is more than 50000 nM.

Turning to `CN(C)[C@H]1CN([C@H]2CCc3ccccc32)C[C@@H]1c1cn(C)c2ccccc12` (racemic), the Ki at Polycomb protein EED [1] came to 45 nM.

For the compound `Cc1cccc(F)c1CN1C[C@H](c2ccc(C(=O)N(C)C)cc2)[C@@H](N(C)C)C1` (racemic), at Polycomb protein EED [1], affinity was put at a Ki of 18 nM. Further, in the data set with Liver, the CL free worked out at 97 L/h/kg.

`CN(C)[C@H]1CN(Cc2c(F)cccc2Cl)C[C@@H]1c1cn(C)c2ccccc12` (racemic) showed an inhibition constant Ki at Polycomb protein EED [1] of 53 nM. In addition, the Papp in data set [3] lay in the range of 1 to 3 ×10⁻⁶ cm/s. Besides, the results for the IC50 at Polycomb protein EED [4], with Pfeiffer and at Polycomb protein EED [5] were more than 10000 nM, 3300 nM and 6900 nM, respectively. For the same compound, the CLint scaled at 0.5 µM in data set [2] was more than 1000 L/h/kg.

Turning to `C[C@H]1CN(Cc2c(F)cccc2Br)C[C@@H]1N(C)C` (racemic), on Polycomb protein EED [1], the Ki was found to be 380 nM.

Turning to `CN(C)[C@H]1CN(Cc2ccccc2)C[C@@H]1c1cn(C)c2ccccc12` (racemic), the affinity at Polycomb protein EED [1] corresponds to a Ki of 1500 nM. The CLint scaled at 0.5 µM in data set [2] was more than 1000 L/h/kg.

Turning to `CN(C)[C@H]1CN(Cc2ccccc2F)C[C@@H]1c1cn(C)c2ccccc12` (racemic), at Polycomb protein EED [1], the Ki was 330 nM. Moreover, the CLint scaled at 0.5 µM in data set [2] was more than 1000 L/h/kg.

Compound `Cc1ccc(F)c(CN2C[C@H](c3cn(C)c4ccccc34)[C@@H](N(C)C)C2)c1` (racemic) yielded an inhibition constant (Ki) at Polycomb protein EED [1] of 160 nM. In data set [2], the CLint scaled at 0.5 µM is more than 1000 L/h/kg.

`CN(C)[C@H]1CN(Cc2c(F)cccc2Br)C[C@@H]1C1CCOCC1` (racemic) displayed a Ki on Polycomb protein EED [1] of 59 nM.

Take `Cc1nc2ncccn2c1CN1C[C@H](c2cn(C)c3ccccc23)[C@@H](N(C)C)C1` (racemic): the Ki on Polycomb protein EED [1] was more than 50000 nM.

As usually defined, the Ki is a dissociation constant, usually derived from enzyme kinetics or from competition with a known ligand. A higher Ki goes with lower affinity. By IC50 is commonly meant the midpoint of a concentration-inhibition curve.

(Values after ChEMBL document CHEMBL4004873, “SAR of amino pyrrolidines as potent and novel protein-protein interaction inhibitors of the PRC2 complex through EED binding” (Bioorg Med Chem Lett, 2017).)
